Counter-ions that a name gives are not always drawn.
Columns and labels:
DAT [1] = target: T1, DAT (Rattus norvegicus, UniProt P23977); test: Inhibition of [3H]WIN 35,428 binding to DAT
T1 construct: rat striatum was the source for DAT, and cerebral cortex for SERT and NET; from tissue; P2 synaptosomal fraction for uptake
Protocol: (§1) Biology. […] Briefly, rat striatum was the source for DAT, and cerebral cortex for SERT and NET. […] Test compounds were dissolved in dimethyl sulfoxide (DMSO) and diluted out in 10% (v/v) DMSO. […] At least five triplicate concentrations of each test compound were studied, spaced evenly around the IC50 value. For DAT uptake assays, uptake of 50 nM [^3H]DA into rat striatal synaptosomes was measured exactly as described by us previously. Briefly, rat striatal P2 membrane fractions were incubated with test compounds for 8 min followed by the additional presence of [^3H]DA for 4 min at 25?. […] Construction of inhibition curves and dissolvement of test compounds were as described above.

DAT [2] = target: T1, DAT; test: Inhibition of [3H]DA uptake by DAT into rat striatal synaptosomes; assay type: biochemical; conditions: for IC50: read-out: DAT uptake, IC50 [3H]DA; for [3H]DA uptake/DAT binding: Table 3, ratio of IC50 values
Protocol: as §1

T1 sequence (P23977 whole entry): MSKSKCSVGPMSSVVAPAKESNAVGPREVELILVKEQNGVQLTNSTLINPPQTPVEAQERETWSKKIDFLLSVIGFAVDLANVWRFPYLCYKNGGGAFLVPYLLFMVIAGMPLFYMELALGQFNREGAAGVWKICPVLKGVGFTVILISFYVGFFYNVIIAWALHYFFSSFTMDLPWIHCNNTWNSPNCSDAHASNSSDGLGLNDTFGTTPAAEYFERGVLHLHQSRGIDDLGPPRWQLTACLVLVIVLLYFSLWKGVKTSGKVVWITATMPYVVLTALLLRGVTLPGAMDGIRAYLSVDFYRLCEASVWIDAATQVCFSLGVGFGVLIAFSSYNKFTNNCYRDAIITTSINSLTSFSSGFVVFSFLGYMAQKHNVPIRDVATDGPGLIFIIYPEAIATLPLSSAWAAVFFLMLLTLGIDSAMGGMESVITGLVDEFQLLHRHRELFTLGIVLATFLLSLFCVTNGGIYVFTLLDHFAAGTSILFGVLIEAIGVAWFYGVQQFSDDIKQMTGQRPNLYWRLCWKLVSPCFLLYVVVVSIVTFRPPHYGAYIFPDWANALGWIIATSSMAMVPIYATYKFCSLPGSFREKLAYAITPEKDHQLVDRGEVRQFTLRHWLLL

SMILES	melting point	further results
COc1ccc(CN[C@H]2CO[C@@H](C(c3ccccc3)c3ccccc3)C[C@@H]2O)cc1 (as salt: oxalate) [(+)-29a, (2R,4S,5S)-2-benzhydryl-5-(4-methoxy-benzylamino)-tetrahydro-pyran-4-ol]	230 to 232 °C	–
O[C@H]1C[C@H](C(c2ccccc2)c2ccccc2)OC[C@@H]1NCc1ccc(F)cc1 (as salt: oxalate) [(+)-29b, (2R,4S,5S)-2-benzhydryl-5-(4-fluoro-benzylamino)-tetrahydro-pyran-4-ol]	223 to 225 °C	–
O[C@H]1C[C@H](C(c2ccccc2)c2ccccc2)OC[C@@H]1NCCc1ccc(F)cc1 (as salt: oxalate) [(+)-29c, (2R,4S,5S)-2-benzhydryl-5-[2-(4-fluoro-phenyl)-ethylamino]-tetrahydropyran-4-ol]	203 to 205 °C	–
O[C@H]1C[C@H](C(c2ccccc2)c2ccccc2)OC[C@@H]1NCc1ccccc1 (as salt: oxalate) [(+)-29d, (2R,4S,5S)-2-benzhydryl-5-benzylamino-tetrahydro-pyran-4-ol]	249 to 251 °C	–
Oc1ccc(CN[C@@H]2CC[C@H](C(c3ccccc3)c3ccccc3)OC2)cc1 (as salt: oxalate) [(+)-37a, cis-(3R,6R)-(6-benzhydryl-tetrahydropyran-3-yl)-(4-hydroxy-benzyl)-amine]	136 to 138 °C	–
COc1ccc(CN[C@@H]2CO[C@H](C(c3ccccc3)c3ccccc3)C[C@H]2O)cc1 (as salt: oxalate) [(−)-29a, (2S,4R,5R)-2-benzhydryl-5-(4-methoxy-benzylamino)-tetrahydropyran-4-ol]	230 to 232 °C	–
O[C@@H]1C[C@@H](C(c2ccccc2)c2ccccc2)OC[C@H]1NCc1ccc(F)cc1 (as salt: oxalate) [(−)-29b, (2S,4R,5R)-2-benzhydryl-5-(4-fluoro-benzylamino)-tetrahydro-pyran-4-ol]	222 to 223 °C	–
O[C@@H]1C[C@@H](C(c2ccccc2)c2ccccc2)OC[C@H]1NCCc1ccc(F)cc1 (as salt: oxalate) [(−)-29c, (2S,4R,5R)-2-benzhydryl-5-[2-(4-fluoro-phenyl)-ethylamino]-tetrahydropyran-4-ol]	205 to 207 °C	–
O[C@@H]1C[C@@H](C(c2ccccc2)c2ccccc2)OC[C@H]1NCc1ccccc1 (as salt: oxalate) [(−)-29d, (2S,4R,5R)-2-benzhydryl-5-benzylamino-tetrahydro-pyran 4-ol]	250 to 252 °C	–
COc1ccc(CN[C@@H]2CO[C@H](C(c3ccccc3)c3ccccc3)C[C@H]2O)c(OC)c1 (as salt: oxalate) [(−)-29e, (2S,4R,5R)-2-benzhydryl-5-(2,4-dimethoxy-benzylamino)-tetrahydropyran-4-ol]	208 to 210 °C	–
COc1cc(CN[C@@H]2CO[C@H](C(c3ccccc3)c3ccccc3)C[C@H]2O)cc(OC)c1 (as salt: oxalate) [(−)-29f, (2S,4R,5R)-2-benzhydryl-5-(3,5-dimethoxy-benzylamino)-tetrahydropyran-4-ol]	245 to 247 °C	–
N[C@H]1CC[C@@H](C(c2ccccc2)c2ccccc2)OC1 (relative stereo) [Compound 15, Cis-(6-benzhydryl-tetrahydropyran-3-yl)-amine]	–	activity at DAT, in words (DAT [1]): little or no activity at the DAT; IC50 (DAT [1]; Table 2, average ± SEM of three to eight experiments, read-out: DAT binding, IC50, [3H]Win 35,428): 777 ± 41 nM; IC50 (DAT [2]; Table 2, average ± SEM): 251 ± 31 nM; [3H]DA uptake/DAT binding (DAT [2]): 0.32
COc1ccc(CN[C@H]2CC[C@@H](C(c3ccccc3)c3ccccc3)OC2)cc1 (relative stereo) [Compound 16e, Cis-(6-benzhydryl-tetrahydropyran-3-yl)-(4-methoxy-benzyl)-amine]	–	IC50 (DAT [1]; read-out: IC50 at the DAT): 84 nM; IC50 (DAT [2]; Table 2, average ± SEM): 59.5 ± 11.6 nM; [3H]DA uptake/DAT binding (DAT [2]): 0.71
O[C@H]1C[C@H](C(c2ccccc2)c2ccccc2)OC[C@@H]1NCc1ccc2[nH]ccc2c1 [(+)-32b, (2R,4S,5S)-2-benzhydryl-5-[(1H-indol-5-ylmethyl)-amino]-tetrahydropyran-4-ol]	–	IC50 (DAT [1]; Table 4, rat brain, read-out: DAT binding, IC50, [3H]Win 35,428): 494 ± 96 nM; IC50 (DAT [2]; Table 4, rat brain): 247 ± 21 nM

From patent publication US8017791B2, “Tri-substituted 2-benzhydryl-5-benzylamino-tetrahydro-pyran-4-ol and 6-benzhydryl-4-benzylamino-tetrahydro-pyran-3-ol analogues, and novel, 3,6-disubstituted pyran derivatives” (Wayne State University, priority 2003, dated 2011)
